From PubChem BioAssay (NCI)
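In this assay, cells in 96-well plates receive the compound at five concentrations for 48 hours. Endpoints are linearly interpolated between the surrounding concentrations. TGI is the concentration that stops growth completely.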

Columns and labels:
Assay in all cases: NCI-60 cell line screen, 48 h
786-0 renal = system: 786-0 renal
A498 renal = system: A498 renal
A549 NSCLC = system: A549 NSCLC
ACHN renal = system: ACHN renal
COLO 205 colon = system: COLO 205 colon
DLD-1 colon = system: DLD-1 colon
DMS 114 small cell lung = system: DMS 114 small cell lung
EKVX NSCLC = system: EKVX NSCLC
HCC-2998 colon = system: HCC-2998 colon
HCT-116 colon = system: HCT-116 colon
HCT-15 colon = system: HCT-15 colon
HL-60(TB) leukemia = system: HL-60(TB) leukemia
HOP-18 NSCLC = system: HOP-18 NSCLC
HOP-62 NSCLC = system: HOP-62 NSCLC
HOP-92 NSCLC = system: HOP-92 NSCLC
HT29 colon = system: HT29 colon
IGROV1 ovarian = system: IGROV1 ovarian
K-562 leukemia = system: K-562 leukemia
KM12 colon = system: KM12 colon
KM20L2 colon = system: KM20L2 colon
LOX IMVI melanoma = system: LOX IMVI melanoma
LXFL 529 NSCLC = system: LXFL 529 NSCLC
M19-MEL melanoma = system: M19-MEL melanoma
MALME-3M melanoma = system: MALME-3M melanoma
MOLT-4 leukemia = system: MOLT-4 leukemia
NCI-H226 lung = system: NCI-H226 lung
NCI-H23 lung = system: NCI-H23 lung
NCI-H460 lung = system: NCI-H460 lung
NCI-H522 lung = system: NCI-H522 lung
OVCAR-3 ovarian = system: OVCAR-3 ovarian
OVCAR-4 ovarian = system: OVCAR-4 ovarian
OVCAR-8 ovarian = system: OVCAR-8 ovarian
RPMI-8226 leukemia = system: RPMI-8226 leukemia
RXF 393 renal = system: RXF 393 renal
SF-268 CNS = system: SF-268 CNS
SF-295 CNS = system: SF-295 CNS
SF-539 CNS = system: SF-539 CNS
SK-MEL-2 melanoma = system: SK-MEL-2 melanoma
SK-MEL-28 melanoma = system: SK-MEL-28 melanoma
SN12C renal = system: SN12C renal
SNB-19 CNS = system: SNB-19 CNS
SNB-75 CNS = system: SNB-75 CNS
SNB-78 CNS = system: SNB-78 CNS
SR leukemia = system: SR leukemia
SW-620 colon = system: SW-620 colon
TK-10 renal = system: TK-10 renal
U251 CNS = system: U251 CNS
UACC-257 melanoma = system: UACC-257 melanoma
UO-31 renal = system: UO-31 renal
CAKI-1 renal = system: CAKI-1 renal
CCRF-CEM leukemia = system: CCRF-CEM leukemia
DMS 273 small cell lung = system: DMS 273 small cell lung
M14 melanoma = system: M14 melanoma
OVCAR-5 ovarian = system: OVCAR-5 ovarian
SK-MEL-5 melanoma = system: SK-MEL-5 melanoma
SK-OV-3 ovarian = system: SK-OV-3 ovarian
XF 498 CNS = system: XF 498 CNS

O=c1c2cc(Br)ccc2[nH]c(=S)n1-c1ccc(Br)cc1
TGI (786-0 renal): > 100 µM
TGI (A498 renal): > 100 µM
TGI (A549 NSCLC): > 100 µM
TGI (ACHN renal): > 100 µM
TGI (COLO 205 colon): > 100 µM
TGI (DLD-1 colon): > 100 µM
TGI (DMS 114 small cell lung): > 100 µM
TGI (EKVX NSCLC): > 100 µM
TGI (HCC-2998 colon): > 100 µM
TGI (HCT-116 colon): > 100 µM
TGI (HCT-15 colon): > 100 µM
TGI (HL-60(TB) leukemia): > 100 µM
TGI (HOP-18 NSCLC): > 100 µM
TGI (HOP-62 NSCLC): > 100 µM
TGI (HOP-92 NSCLC): 75.7 µM
TGI (HT29 colon): > 100 µM
TGI (IGROV1 ovarian): > 100 µM
TGI (K-562 leukemia): > 100 µM
TGI (KM12 colon): > 100 µM
TGI (KM20L2 colon): > 100 µM
TGI (LOX IMVI melanoma): > 100 µM
TGI (LXFL 529 NSCLC): > 100 µM
TGI (M19-MEL melanoma): > 100 µM
TGI (MALME-3M melanoma): > 100 µM
TGI (MOLT-4 leukemia): > 100 µM
TGI (NCI-H226 lung): > 100 µM
TGI (NCI-H23 lung): > 100 µM
TGI (NCI-H460 lung): > 100 µM
TGI (NCI-H522 lung): > 100 µM
TGI (OVCAR-3 ovarian): > 100 µM
TGI (OVCAR-4 ovarian): > 100 µM
TGI (OVCAR-8 ovarian): > 100 µM
TGI (RPMI-8226 leukemia): > 100 µM
TGI (RXF 393 renal): > 100 µM
TGI (SF-268 CNS): > 100 µM
TGI (SF-295 CNS): > 100 µM
TGI (SF-539 CNS): > 100 µM
TGI (SK-MEL-2 melanoma): > 100 µM
TGI (SK-MEL-28 melanoma): > 100 µM
TGI (SN12C renal): > 100 µM
TGI (SNB-19 CNS): > 100 µM
TGI (SNB-75 CNS): 41 µM
TGI (SNB-78 CNS): > 100 µM
TGI (SR leukemia): > 100 µM
TGI (SW-620 colon): > 100 µM
TGI (TK-10 renal): > 100 µM
TGI (U251 CNS): > 100 µM
TGI (UACC-257 melanoma): > 100 µM
TGI (UO-31 renal): > 100 µM

O=C(CC1(O)C(=O)Nc2c(Cl)cccc21)c1ccccc1 (stereo not given)
TGI (786-0 renal): > 100 µM
TGI (A549 NSCLC): > 100 µM
TGI (ACHN renal): > 100 µM
TGI (CAKI-1 renal): > 100 µM
TGI (CCRF-CEM leukemia): > 100 µM
TGI (COLO 205 colon): > 100 µM
TGI (DLD-1 colon): > 100 µM
TGI (DMS 114 small cell lung): > 100 µM
TGI (DMS 273 small cell lung): > 100 µM
TGI (EKVX NSCLC): > 100 µM
TGI (HCC-2998 colon): > 100 µM
TGI (HCT-15 colon): > 100 µM
TGI (HL-60(TB) leukemia): > 100 µM
TGI (HOP-18 NSCLC): > 100 µM
TGI (HOP-62 NSCLC): > 100 µM
TGI (HOP-92 NSCLC): > 100 µM
TGI (HT29 colon): > 100 µM
TGI (K-562 leukemia): > 100 µM
TGI (KM12 colon): > 100 µM
TGI (KM20L2 colon): > 100 µM
TGI (LOX IMVI melanoma): > 100 µM
TGI (LXFL 529 NSCLC): > 100 µM
TGI (M14 melanoma): > 100 µM
TGI (MALME-3M melanoma): > 100 µM
TGI (MOLT-4 leukemia): > 100 µM
TGI (NCI-H226 lung): > 100 µM
TGI (NCI-H23 lung): > 100 µM
TGI (NCI-H460 lung): > 100 µM
TGI (NCI-H522 lung): > 100 µM
TGI (OVCAR-3 ovarian): > 100 µM
TGI (OVCAR-4 ovarian): > 100 µM
TGI (OVCAR-5 ovarian): > 100 µM
TGI (OVCAR-8 ovarian): > 100 µM
TGI (RPMI-8226 leukemia): > 100 µM
TGI (RXF 393 renal): > 100 µM
TGI (SF-268 CNS): > 100 µM
TGI (SF-295 CNS): > 100 µM
TGI (SK-MEL-2 melanoma): > 100 µM
TGI (SK-MEL-28 melanoma): > 100 µM
TGI (SK-MEL-5 melanoma): > 100 µM
TGI (SK-OV-3 ovarian): > 100 µM
TGI (SN12C renal): > 100 µM
TGI (SNB-19 CNS): > 100 µM
TGI (SNB-75 CNS): > 100 µM
TGI (SNB-78 CNS): > 100 µM
TGI (SW-620 colon): > 100 µM
TGI (TK-10 renal): > 100 µM
TGI (U251 CNS): > 100 µM
TGI (UACC-257 melanoma): > 100 µM
TGI (UO-31 renal): > 100 µM
TGI (XF 498 CNS): > 100 µM
